40 molecules from US12428415B2, “Matriptase 2 inhibitors and uses thereof” (Disc Medicine, Inc., priority 2018, dated 2025) can be followed below.

This test has as its target T1, Human Recombinant Matriptase 2 (Homo sapiens, UniProt Q8IU80).
T1 construct: purchased Enzo Life Sciences (an in-house preparation was also used) ALX-201-752-1
T1 sequence (Q8IU80 1-811): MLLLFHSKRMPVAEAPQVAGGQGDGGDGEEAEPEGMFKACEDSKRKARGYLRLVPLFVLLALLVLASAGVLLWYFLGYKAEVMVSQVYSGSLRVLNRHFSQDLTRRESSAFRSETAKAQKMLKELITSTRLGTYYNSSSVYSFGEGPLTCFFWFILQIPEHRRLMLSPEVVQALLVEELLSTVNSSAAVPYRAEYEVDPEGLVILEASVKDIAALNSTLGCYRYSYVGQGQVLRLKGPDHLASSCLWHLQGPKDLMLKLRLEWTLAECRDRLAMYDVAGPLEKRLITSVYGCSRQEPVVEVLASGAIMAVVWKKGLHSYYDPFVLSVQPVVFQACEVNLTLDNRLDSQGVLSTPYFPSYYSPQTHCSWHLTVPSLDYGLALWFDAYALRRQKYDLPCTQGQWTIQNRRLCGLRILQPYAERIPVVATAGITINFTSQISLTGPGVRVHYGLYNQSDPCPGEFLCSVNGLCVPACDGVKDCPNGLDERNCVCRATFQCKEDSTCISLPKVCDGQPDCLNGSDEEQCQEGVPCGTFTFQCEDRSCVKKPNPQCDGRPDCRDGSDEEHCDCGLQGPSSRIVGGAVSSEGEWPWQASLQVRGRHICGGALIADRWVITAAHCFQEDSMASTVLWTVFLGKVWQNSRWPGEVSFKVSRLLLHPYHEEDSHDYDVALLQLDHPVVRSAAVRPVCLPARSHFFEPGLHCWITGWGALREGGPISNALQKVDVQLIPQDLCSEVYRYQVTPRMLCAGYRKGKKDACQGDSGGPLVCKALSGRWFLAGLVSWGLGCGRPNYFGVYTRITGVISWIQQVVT
The experiment in a line: Matriptase 2 fluorescence based inhibition assay, Method B (50 mM TRIS pH 7.5, 150 mM NaCl, 0.01% gelatin). Type of test: biochemical. The following applies: read-out: Mar-2 % inhibition at 1 uM. Put shortly: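 Fluorogenic substrate Boc-Gln-Ala-Arg-7-amido-4-methylcoumarin (100 μM) cleavage read at Ex 360/Em 480 nm 60 min after addition, following 30 min enzyme–compound preincubation at 25° C. Enzyme was 7 nM commercial or 15 nM in-house; DMSO 1%. IC50s fitted by non-linear sigmoidal regression.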

The structures appear in SMILES notation. Like-named read-outs stand apart in the source and are kept apart here.

What is called inhibition is the drop in the measured response relative to a control, in per cent. On to `N=C(NC(=O)OCC(Cl)(Cl)Cl)c1ccc2cc(C(=O)O)n(Cc3cc(Oc4ncccn4)cc4ccccc34)c2c1` [Compound I-552], for which the inhibition at 1 µM (1 uM compound, Assay Used = B) lay in the range of 0 to 25%.
On to `CN1CCC(NC(=O)c2cc3ccc(C(=N)NC(=O)Oc4ccccc4)cc3n2Cc2cc(Oc3ncccn3)cc3ccccc23)CC1` [Compound I-553], for which the inhibition at 1 µM was in the range of 0 to 25%.
As to `COC(=O)NCCOC(=O)c1cc2ccc(C(=N)NC(=O)Oc3ccccc3)cc2n1Cc1cc(Oc2ncccn2)cc2ccccc12` [Compound I-554], the inhibition at 1 µM lay in the range of 0 to 25%.
In the case of `COC(=O)NCCOC(=O)c1cc2ccc(C(=N)N)cc2n1Cc1cc(Oc2ccccc2)cc2ccccc12` [Compound I-555], the inhibition at 1 µM (1 uM compound, Assay Used = B) lay within 25 to 50%.
Same read-out and setting: next, `COC(=O)NCCOC(=O)c1cc2ccc(C(=N)N)cc2n1Cc1cc(S(=O)(=O)c2ccccc2)cc2ccccc12` [Compound I-556]: 25 to 50%; `CC(C)COC(=O)NC(=N)c1ccc2cc(C(=O)NC3CCN(C)CC3)n(Cc3cc(Oc4ncccn4)cc4ccccc34)c2c1` [Compound I-557]: 0 to 25%; `CCOC(=O)c1cc2ccc(/C(N)=N/C#N)cc2n1Cc1cc(Oc2ncccn2)cc2ccccc12` [Compound I-558, ethyl (Z)-6-(N′-cyanocarbamimidoyl)-1-((3-(pyrimidin-2-yloxy)naphthalen-1-yl)methyl)-1H-indole-2-carboxylate]: 0 to 25%.
Still for that read-out and setting: next, `CCOC(=O)NC(=N)c1ccc2cc(C(=O)OCC)n(Cc3cc(Oc4ncccn4)cc4ccccc34)c2c1` [Compound I-559]: 25 to 50%.
In the case of `COC(=O)NC(=N)c1ccc2cc(C(=O)O)n(Cc3cc(Oc4ncccn4)cc4ccccc34)c2c1` [Compound I-561], the inhibition at 1 µM (1 uM compound, Assay Used = B) lay in the range of 25 to 50%.
The same measure, in the same setting: next, `CN1CCC(COC(=O)c2cc3ccc(C(=N)N)cc3n2Cc2cc(Oc3ncccn3)cc3ccccc23)CC1` [Compound I-562]: 50 to 75%; `N=C(N)c1ccc2cc(C(=O)O)n(Cc3cc(OCc4ncccn4)cc4ccccc34)c2c1` [Compound I-563]: 50 to 75%; `COC(=O)NCCNC(=O)c1cc2ccc(C(=N)N)cc2n1Cc1cc(Oc2ncccn2)cc2ccccc12` [Compound I-564]: 75 to 100%.
The same measure, in the same setting: next, `N=C(N)c1ccc2cc(C(=O)OCCO)n(Cc3cc(Oc4ncccn4)cc4ccccc34)c2c1` [Compound I-565]: 75 to 100%.
On the same count and under the same terms, next, `Cc1ccnc(Oc2cc(Cn3c(C(=O)O)cc4ccc(C(=N)N)cc43)c3ccccc3c2)n1` [Compound I-566]: 25 to 50%; `N=C(N)c1ccc2cc(C(=O)O)n(Cc3cc(NS(=O)(=O)c4ccccc4)cc4ccccc34)c2c1` [Compound I-567, 6-carbamimidoyl-1-((3-(phenylsulfonamido)naphthalen-1-yl)methyl)-1H-indole-2-carboxylic Acid]: 75 to 100%; `N=C(N)c1ccc2cc(C(=O)OCCNC(N)=O)n(Cc3cc(Oc4ncccn4)cc4ccccc34)c2c1` [Compound I-568]: 75 to 100%.
In the case of `N=C(N)c1cc(F)c2cc(C(=O)O)n(Cc3cc(Oc4ncccn4)cc4ccccc34)c2c1` [Compound I-569, 6-carbamimidoyl-4-fluoro-1-((3-(pyrimidin-2-yloxy)naphthalen-1-yl)methyl)-1H-indole-2-carboxylic Acid], for the setting “1 uM compound, Assay Used = B”, the inhibition at 1 µM fell in the range of 75 to 100%.
The same measure, in the same setting: next, `Cc1cc(C)nc(Oc2cc(Cn3c(C(=O)O)cc4ccc(C(=N)N)cc43)c3ccccc3c2)n1` [Compound I-570]: 25 to 50%; `N=C(N)c1ccc2cc(C(=O)O)n(Cc3cc(Oc4ncc(F)cn4)cc4ccccc34)c2c1` [Compound I-571]: 50 to 75%; `N=C(N)c1ccc2cc(C(=O)Nc3nnn[nH]3)n(Cc3cc(Oc4ncccn4)cc4ccccc34)c2c1` [Compound I-572]: 50 to 75%.
The same measure, in the same setting: for `N=C(N)c1ccc2cc(C(=O)Nc3ncccn3)n(Cc3cccc4ccccc34)c2c1` [Compound I-573, 6-carbamimidoyl-1-(naphthalen-1-ylmethyl)-N-(pyrimidin-2-yl)-1H-indole-2-carboxamide] the value was 50 to 75%; for `COc1ccnc(Oc2cc(Cn3c(C(=O)O)cc4ccc(C(=N)N)cc43)c3ccccc3c2)n1` [Compound I-574], 25 to 50%; for `CN(C)C(=O)Sc1cc(Cn2c(C(=O)O)cc3ccc(C(=N)N)cc32)c2ccccc2c1` [Compound I-575], 0 to 25%.
For the molecule `N=C(NC(=O)Oc1ccccc1)c1ccc2cc(C(=O)OCc3ccccc3)n(Cc3cc(Oc4ncccn4)cc4ccccc34)c2c1` [Compound I-576], the inhibition at 1 µM lay within 0 to 25%.
On to `N=C(N)c1ccc2c(F)c(C(=O)O)n(Cc3cccc4ccccc34)c2c1` [Compound I-577, 6-carbamimidoyl-3-fluoro-1-(naphthalen-1-ylmethyl)-1H-indole-2-carboxylic Acid], for which the inhibition at 1 µM (1 uM compound, Assay Used = B) was 50 to 75%.
Turning to `CNC(=O)c1cc2ccc(C(=N)N)cc2n1Cc1cc(Oc2ncccn2)cc2ccccc12` [Compound I-578], the inhibition at 1 µM (1 uM compound, Assay Used = B) was in the range of 75 to 100%.
Consider `CCOC(=O)c1cc2ccc(C(=N)NC(=O)Oc3ccccc3)cc2n1Cc1cc(Oc2ccsc2)cc2ccccc12` [Compound I-579], for which the inhibition at 1 µM lay in the range of 0 to 25%.
With `CC(N)c1ccc2cc(C(=O)N[C@H]3CC[C@H](N)CC3)n(Cc3cccc4ccccc34)c2c1` (stereo partly shown) [Compound I-580, N-((1r,4r)-4-aminocyclohexyl)-6-(1-aminoethyl)-1-(naphthalen-1-ylmethyl)-1H-indole-2-carboxamide], the inhibition at 1 µM (1 uM compound, Assay Used = B) lay in the range of 0 to 25%.
For `CC(C)COC(=O)NC(=N)c1ccc2cc(C(=O)OCc3ccccc3)n(Cc3cc(Oc4ncccn4)cc4ccccc34)c2c1` [Compound I-581], under “1 uM compound, Assay Used = B”, the inhibition at 1 µM is 25 to 50%.
The same measure, in the same setting: next, `N=C(N)c1ccc2cc(C(=O)NCCO)n(Cc3cc(Oc4ncccn4)cc4ccccc34)c2c1` [Compound I-582]: 75 to 100%.
On the same count and under the same terms, next, `COC(=O)NCCOC(=O)c1cc2ccc(C(=N)N)cc2n1Cc1cc(Oc2ncccn2)cc2ccccc12` [Compound I-583]: 75 to 100%; `Cn1nc(C(F)(F)F)c(C=O)c1Oc1cc(Cn2c(C(=O)O)cc3ccc(C(=N)N)cc32)c2ccccc2c1` [Compound I-584]: 0 to 25%.
Same read-out and setting: for `N=C(N)c1ccc2cc(C(=O)O)n(Cc3cc(S(=O)(=O)Nc4ccccc4)cc4ccccc34)c2c1` [Compound I-585] the value was 50 to 75%; for `CCOC(=O)c1cc2ccc(C(=N)NC(=O)OCC(C)C)cc2n1Cc1cc(Oc2ccsc2)cc2ccccc12` [Compound I-586], 25 to 50%.
With `COC(=O)NCCNC(=O)c1cc2ccc(C(=N)N)cc2n1Cc1cccc2ccccc12` [Compound I-587], under “1 uM compound, Assay Used = B”, the inhibition at 1 µM fell in the range of 75 to 100%.
Take `N=C(N)c1ccc2[nH]c(C(=O)O)c(Cc3cc(Oc4ccccc4)cc4ccccc34)c2c1` [Compound I-588]: under “1 uM compound, Assay Used = B”, the inhibition at 1 µM was 25 to 50%.
Turning to `N=C(N)c1ccc2cc(C(=O)O)n(Cc3cc(Oc4nccs4)cc4ccccc34)c2c1` [Compound I-589], the inhibition at 1 µM (1 uM compound, Assay Used = B) was in the range of 75 to 100%.
The same measure, in the same setting: next, `CN1CCC(CNC(=O)c2cc3ccc(C(=N)N)cc3n2Cc2cc(Oc3ncccn3)cc3ccccc23)CC1` [Compound I-590]: 75 to 100%; `Cc1c(C(=O)N[C@H]2CC[C@H](N)CC2)n(Cc2cc(Oc3ncccn3)cc3ccccc23)c2cc(C(=N)N)ccc12` [Compound I-591]: 75 to 100%.
Still for that read-out and setting: for `CCOC(=O)c1cc2ccc(C(=N)N)cc2n1Cc1cc(Oc2ccsc2)cc2ccccc12` [Compound I-592] the value was 0 to 25%.
